Experimental data from ChEMBL document CHEMBL4118187, “In vitro activity of salicylamide derivatives against vancomycin-resistant enterococci” (Bioorg Med Chem Lett, 2018).
Values after ≈ are worked out from the molar mass of the structure shown.

How the values were obtained:
Enterococcus faecalis [1] = assay: Antibacterial activity against vancomycin-resistant Enterococcus faecalis 342B after 24 hrs; format: functional
Enterococcus faecalis [2] = assay: Antibacterial activity against vancomycin-resistant Enterococcus faecalis 725B after 24 hrs; format: functional
Enterococcus faecalis [3] = assay: Antibacterial activity against vancomycin-susceptible Enterococcus faecalis ATCC 29212 after 24 hrs; format: functional; conditions: ATCC 29212, 24 h
Enterococcus faecalis [4] = assay: Antibacterial activity against vancomycin-resistant Enterococcus faecalis 368 after 24 hrs; format: functional; conditions: Enterococcus faecalis, 368, 24 h
[5] = Cytotoxicity against human THP1 cells after 24 hrs by LDH release assay; format: cell-based; conditions: THP-1 cells, read-out: LD50

Row | SMILES | MBC (Enterococcus faecalis [1]) | MIC (Enterococcus faecalis [1]) | MBC (Enterococcus faecalis [2]) | MIC (Enterococcus faecalis [2]) | MBC (Enterococcus faecalis [3]) | MIC (Enterococcus faecalis [3]) | MBC (Enterococcus faecalis [4]) | MIC (Enterococcus faecalis [4]) | CC50 at 24 h [5]
1 | CC(C)[C@H](NC(=O)OCc1ccccc1)C(=O)Oc1ccc(Cl)cc1C(=O)Nc1ccc(C(F)(F)F)cc1 | > 466 µM | > 466 µM | > 466 µM | > 466 µM | > 466 µM | > 466 µM | > 466 µM | > 466 µM | 
2 | CN[C@H](CC(C)C)C(=O)N[C@H]1C(=O)N[C@@H](CC(N)=O)C(=O)N[C@H]2C(=O)N[C@H]3C(=O)N[C@H](C(=O)N[C@H](C(=O)O)c4cc(O)cc(O)c4-c4cc3ccc4O)[C@H](O)c3ccc(c(Cl)c3)Oc3cc2cc(c3O[C@@H]2O[C@H](CO)[C@@H](O)[C@H](O)[C@H]2O[C@H]2C[C@](C)(N)[C@H](O)[C@H](C)O2)Oc2ccc(cc2Cl)[C@H]1O [VANCOMYCIN] |  | 353 µM (≈ 512 µg/mL) |  | 706 µM (≈ 1020 µg/mL) |  |  |  | 353 µM (≈ 512 µg/mL) | 
3 | O=C(Nc1ccccc1)c1cc(Cl)ccc1O | > 1030 µM | 64.6 µM (≈ 16 µg/mL) | 516 µM (≈ 128 µg/mL) | 129 µM (≈ 32 µg/mL) | 1.01 µM (≈ 0.25 µg/mL) | 0.5 µM (≈ 0.124 µg/mL) | 1030 µM (≈ 256 µg/mL) | 129 µM (≈ 32 µg/mL) | > 40 µM
4 | COc1ccc(NC(=O)c2cc(Cl)ccc2OC(=O)[C@@H](NC(=O)OCc2ccccc2)C(C)C)cc1 | > 499 µM | > 499 µM | > 499 µM | > 499 µM | > 499 µM | > 499 µM | > 499 µM | > 499 µM | 
5 | CC(C)[C@H](NC(=O)OCc1ccccc1)C(=O)Oc1ccc([N+](=O)[O-])cc1C(=O)Nc1ccc(Cl)cc1 | > 466 µM | > 466 µM | > 466 µM | > 466 µM | > 466 µM | > 466 µM | > 466 µM | > 466 µM | 
6 | Cc1ccc(NC(=O)[C@@H](NC(=O)c2cc(Cl)ccc2O)C(C)C)cc1 | > 709 µM | > 709 µM | > 709 µM | > 709 µM | > 709 µM | > 709 µM | > 709 µM | > 709 µM | 
7 | CC(C)[C@H](NC(=O)OCc1ccccc1)C(=O)Oc1cc(Cl)ccc1C(=O)Nc1ccc(Cl)c(Cl)c1 | > 465 µM | > 465 µM | > 465 µM | > 465 µM | > 465 µM | > 465 µM | > 465 µM | > 465 µM | 
8 | CC1(C)S[C@@H]2[C@H](NC(=O)[C@H](N)c3ccccc3)C(=O)N2[C@H]1C(=O)O [AMPICILLIN] |  |  | 5.72 µM (≈ 2 µg/mL) | 5.72 µM (≈ 2 µg/mL) |  |  |  |  | 
